Test results published in patent publication EP0451299B1, “MAGNETOCONTROLLABLE CARRIER WITH PHYSIOLOGICALLY ACTIVE SUBSTANCE AND METHOD FOR MAKING SAID CARRIER” (KHOLODOV, Leonid Efimovich, priority 1989, dated 1991).

How the values were obtained:
[1] = test system: carcinosarcome de Walker, sarcome S-45 ou sarcome M-1; format: in vivo, rats; conditions: for régression complète de la tumeur / durée de vie, augmentation par rapport au groupe témoin (sans antibiotiques): ordinary solution i.v., no carrier: daunorubicyne 2 mg/kg/jour for 5 days, carminomicyne 3 x 0,4 mg/kg at 120 h intervals; for durée de vie, augmentation par rapport au groupe témoin (sans antibiotiques): mean; for examens histologiques de divers tissus, surtout du tissu hépatique / hémopoïèse: rat, in vivo, iv
From the text: Dans les essais effectués, le support selon l'invention était porteur d'une préparation anticancéreuse : daunorubicyne, doxorubicyne ou carminomicyne; teneur en fer : 56 à 64 % en masse, le reste étant du carbone; teneur en antibiotique daunorubicyne, doxorubicyne ou carminomycine adsorbé : 2 à 2,5 % en masse.
L'action anticancéreuse a été établie chez des rats et comparée à celle des microsphères connues portant lesdits antibiotiques (taille moyenne des microsphères: 0,2 à 0,5 »m; enveloppe en albumine dénaturée), ainsi qu'à celle de ces médicaments anticancéreux sans support à commande magnétique. Les sujets expérimentaux étaient des rats d'une masse allant de 180 à 220 g. On a réinoculé aux rats (au milieu de la queue) une des […] couches des tumeurs réinoculables des rats; carcinosarcome de Walker, sarcome S-45 ou sarcome M-1 (40 rats pour chaque souche). Le traitement des animaux a commencé lorsque le volume de la teneur avait 1000 mm³.
Le support selon l'invention contenant de la daunorubicyne ou de la carminomicyne a été injecté en une seule fois lentement dans la veine caudale des rats, dose de 40 mg (0,8 mg en calculant en antibiotique, soit 4 mg/kg), sous forme d'une suspension en 1 ml de solution de gélatinol à 8 % pour injections. Dans le cas de la doxorubicyne la dose a été de 12 mg/kg (dose de support : 96 mg en calculant en antibiotique. Avant l'injection, un aimant permanent de samarium-cobalt (6000 Oe) a été fixé sur la queue au niveau de la tumeur. La localisation du support à antibiotique selon l'invention dans le vaisseau au niveau de la tumeur a été contrôlée à l'aide de radiogrammes.
Les microsphères albumineuses ont été injectées en une seule fois, comme décrit ci-dessus, dans une dose de 4 mg/kg (en calculant en daunorubicyne ou en carminomicyne). Les antibiotiques (sans support à commande magnétique) ont été injectés comme suit : la daunorubicyne a été injectée dans la veine caudale des rats avec une dose de 2 mg/kg/jour en solution de gélatinol à 8 % pour des injections pendant 5 jours (une injection par jour); carminomicyne : 0,4 mg/kg 3 fois avec des intervalles de 120 heures; doxorubicyne : en une seule fois avec une dose de 12 mg/kg. Dans le groupe témoin des animaux atteints de tumeur on a injecté dans la veine, 1 ml de solution de gélatinol à 8 % pour injections.

[2] = test system: oedème provoqué par le dextrane; assay: Anti-oedema activity, dextran-induced tail oedema (plethysmometer); format: in vivo, rats; conditions: ordinary solution i.v. 20 mg/kg; 1 hour after injection
From the text: On a essayé l'activité anti-oedémique du support, selon l'invention, contenant une préparation antihistaminique (la diphénylhydramine). Le support selon l'invention se composait de 56 à 63 % en masse de fer et de carbone pour le reste; la teneur en diphénylhydramine adsorbée était de 3 % en masse.
Des essais comparatifs de l'activitié anti-oedémique ont été effectués en la comparant à celle de la diphénylhydramine injectée sous forme de solution ordinaire.
Les sujets des essais étaient 30 rats mâles de la population Vistar d'un poids allant de 180 à 220 g. Pour obtenir un oedème expérimental, on a injecté par voie subplantaire au milieu de la queue de 10 rats, 0,1 ml de solution aqueuse de dextrane à 4 %. Un aimant permanent de samarium-cobalt (6000 Oe) a été fixé à cet endroit et on a injecté aussitôt lentement dans la veine caudale 20 mg de support, selon l'invention, contenant 0,6 mg de diphénylhydramine en 0,7 ml de solution de gélatinol à 8 % pour injections (dose moyenne en calculant en diphénylhydramine : 3 mg/kg). La localisation de la dispersion dans le canal vasculaire a été contrôlée par radiographie. Chez 10 rats on a injecté de la même façon la solution de dextrane et on a injecté aussitôt dans la veine caudale la solution de diphénylhydramine (dose : 20 mg/kg, soit en moyenne 5 mg par rat) en 0,7 ml de solution de gélatinol à 8 % pour injections. […]

Structure (SMILES) | régression complète de la tumeur [1] | durée de vie, augmentation par rapport au groupe témoin (sans antibiotiques) [1] | examens histologiques de divers tissus, surtout du tissu hépatique [1] | hémopoïèse [1] | augmentation du volume de la queue [2] | augmentation du volume de la queue plus faible que dans le groupe témoin [2]
CC(=O)[C@]1(O)Cc2c(O)c3c(c(O)c2[C@@H](O[C@H]2C[C@H](N)[C@H](O)[C@H](C)O2)C1)C(=O)c1c(O)cccc1C3=O [carminomicyne] | en aucun cas | 15-30% | altérations cytotoxiques graves | oppression de l'hémopoïèse |  | 
CN(C)CCOC(c1ccccc1)c1ccccc1 [diphénylhydramine] |  |  |  |  | 1025±41 mm³ | 33±2%
COc1cccc2c1C(=O)c1c(O)c3c(c(O)c1C2=O)C[C@@](O)(C(C)=O)C[C@@H]3O[C@H]1C[C@H](N)[C@H](O)[C@H](C)O1 [daunorubicyne] | en aucun cas | 15-30% | altérations cytotoxiques graves | oppression de l'hémopoïèse |  | 
